Measurements published in patent US20080200448A1, “New Pyridine Analogues VIII 518” (ASTRAZENECA AB, priority 2007, published 2008).

Biological target: T1, P2Y12 receptor (Homo sapiens, UniProt Q9H244)
T1 construct: expressed in transfected cells; host or cells: CHO cells (membrane preparation)
Assay: Functional inhibition of 2-Me-S-ADP induced P2Y12 signalling (35S-GTPγS binding, cell membranes)
Type: biochemical
Settings: 35S-GTPγS assay, membranes, EC80 concentration of 2-methyl-thio-adenosine diphosphate, 30° C. for 45 min; read-out: GTPγS (IC50 μM)
In short: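 Membranes (5 μg) from P2Y12-transfected CHO cells in pH 7.4 HEPES buffer with 10 μM GDP and saponin were stimulated with an EC80 of 2-methyl-thio-ADP plus compound and ^35S-GTPγS for 45 min at 30° C. Filter-retained ^35S-GTPγS was counted, normalised between agonist and no-agonist activity, and IC50 taken from a four-parameter fit.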

T1 sequence (Q9H244 whole entry): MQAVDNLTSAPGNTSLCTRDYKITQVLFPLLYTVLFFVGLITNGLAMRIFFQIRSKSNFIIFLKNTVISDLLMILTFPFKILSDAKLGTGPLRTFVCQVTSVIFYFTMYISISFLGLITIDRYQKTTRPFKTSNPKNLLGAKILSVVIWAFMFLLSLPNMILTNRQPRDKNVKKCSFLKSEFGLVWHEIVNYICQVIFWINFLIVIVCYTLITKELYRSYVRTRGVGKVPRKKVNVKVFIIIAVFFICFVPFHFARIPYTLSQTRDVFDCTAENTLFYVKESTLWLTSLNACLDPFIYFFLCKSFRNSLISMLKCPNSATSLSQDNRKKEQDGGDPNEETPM

Structure (SMILES) | IC50 [µM]
CC(C)OC(=O)c1cc(C#N)c(N2CCC(C(=O)NS(=O)(=O)Cc3ccccc3)CC2)nc1CN1CCCC1=O [Example 34, Isopropyl 6-{4-[(benzylsulfonyl)carbamoyl]piperidin-1-yl}-5-cyano-2-[(2-oxopyrrolidin-1-yl)methyl]nicotinate] | 0.033
CCOC(=O)c1cc(C#N)c(N2CC(C(=O)NS(=O)(=O)Cc3ccccc3)C2)nc1CS(C)(=O)=O [Example 10, Ethyl 6-{3-[(benzylsulfonyl)carbamoyl]azetidin-1-yl}-5-cyano-2-[(methylsulfonyl)methyl]nicotinate] | 0.243
CCOC(=O)c1cc(C#N)c(N2CCC(C(=O)NS(=O)(=O)Cc3ccc(Cl)cc3F)CC2)nc1CN1CCCC1=O [Example 44, Ethyl 6-(4-{[(4-chloro-2-fluorobenzyl)sulfonyl]carbamoyl}piperidin-1-yl)-5-cyano-2-[(2-oxopyrrolidin-1-yl)methyl]nicotinate] | 0.01
CC(C)OC(=O)c1cc(C#N)c(N2CCC(C(=O)NS(=O)(=O)Cc3ccc(Cl)cc3Cl)CC2)nc1CN1CCCC1=O [Example 53, Isopropyl 5-cyano-6-(4-{[(2,4-dichlorobenzyl)sulfonyl]carbamoyl}piperidin-1-yl)-2-[(2-oxopyrrolidin-1-yl)methyl]nicotinate] | 0.032
CCOC(=O)c1cc(C#N)c(N2CCC(C(=O)NS(=O)(=O)Cc3ccccc3)CC2)nc1CN1CCCC1 [Example 3, Ethyl 6-{4-[(benzylsulfonyl)carbamoyl]piperidin-1-yl}-5-cyano-2-(pyrrolidin-1-ylmethyl)nicotinate] | 0.545
CCOC(=O)c1cc(C#N)c(N2CCC(C(=O)NS(=O)(=O)Cc3ccccc3)CC2)nc1OCC1CCO1 (stereo not shown) [Example 23, Ethyl 6-{4-[(benzylsulfonyl)carbamoyl]piperidin-1-yl}-5-cyano-2-(oxetan-2-ylmethoxy)nicotinate] | 0.048
CCOC(=O)c1cc(C#N)c(N2CCC(C(=O)NS(=O)(=O)Cc3ccc(Cl)cc3Cl)CC2)nc1CN1CCCC1=O [Example 41, Ethyl 5-cyano-6-(4-{[(2,4-dichlorobenzyl)sulfonyl]carbamoyl}piperidin-1-yl)-2-[(2-oxopyrrolidin-1-yl)methyl]nicotinate] | 0.016
CCOC(=O)c1cc(C#N)c(N2CCC(C(=O)NS(=O)(=O)Cc3ccccc3)CC2)nc1CSCC [Example 27, Ethyl 6-{4-[(benzylsulfonyl)carbamoyl]piperidin-1-yl}-5-cyano-2-[(ethylthio)methyl]nicotinate] | 0.057
CCOC(=O)c1cc(C#N)c(N2CCC(C(=O)NS(=O)(=O)N(C)c3ccccc3)CC2)nc1CN1CCCC1=O [Example 57, Ethyl 5-cyano-6-[4-({[methyl(phenyl)amino]sulfonyl}carbamoyl)piperidin-1-yl]-2-[(2-oxopyrrolidin-1-yl)methyl]nicotinate] | 0.013
CCOC(=O)c1cc(C#N)c(N2CCC(C(=O)NS(=O)(=O)Cc3ccccc3)CC2)nc1CN1CCCCC1=O [Example 56, Ethyl 6-{4-[(benzylsulfonyl)carbamoyl]piperidin-1-yl}-5-cyano-2-[(2-oxopiperidin-1-yl)methyl]nicotinate] | 0.03
CCOC(=O)c1cc(C#N)c(N2CC(C(=O)NS(=O)(=O)Cc3ccccc3)C2)nc1CN1C(=O)CCC1=O [Example 13, Ethyl 6-{3-[(benzylsulfonyl)carbamoyl]azetidin-1-yl}-5-cyano-2-[(2,5-dioxopyrrolidin-1-yl)methyl]nicotinate] | 0.064
CCOC(=O)c1cc(C#N)c(N2CCC(C(=O)NS(=O)(=O)Cc3ccc(F)cc3)CC2)nc1CN1CCCC1=O [Example 40, Ethyl 5-cyano-6-(4-{[(4-fluorobenzyl)sulfonyl]carbamoyl}piperidin-1-yl)-2-[(2-oxopyrrolidin-1-yl)methyl]nicotinate] | 0.025
CCOC(=O)c1cc(C#N)c(N2CCC(C(=O)NS(=O)(=O)Cc3ccccc3)CC2)nc1COC(=O)CO [Example 16, Ethyl 6-{4-[(benzylsulfonyl)carbamoyl]piperidin-1-yl}-5-cyano-2-[(glycoloyloxy)methyl]nicotinate] | 0.015
CCOC(=O)c1cc(C#N)c(N2CCC(C(=O)NS(=O)(=O)CC3CCCC3)CC2)nc1CN1CCCCC1=O [Example 60, Ethyl 5-cyano-6-(4-{[(cyclopentylmethyl)sulfonyl]carbamoyl}piperidin-1-yl)-2-[(2-oxopiperidin-1-yl)methyl]nicotinate] | 0.111

Second part, the compound after the results:

IC50 [µM] | Structure (SMILES)
0.062 | CCOC(=O)CSc1nc(N2CCC(C(=O)NS(=O)(=O)Cc3ccc(Cl)cc3Cl)CC2)c(C#N)cc1C(=O)OCC [Example 109, Ethyl 5-cyano-6-(4-{[(2,4-dichlorobenzyl)sulfonyl]carbamoyl}piperidin-1-yl)-2-[(2-ethoxy-2-oxoethyl)thio]nicotinate]
0.019 | CCOC(=O)c1cc(C#N)c(N2CCC(C(=O)NS(=O)(=O)Cc3ccccc3)CC2)nc1O[C@@H](C)C(=O)OCC [Example 120, Ethyl 6-{4-[(benzylsulfonyl)carbamoyl]piperidin-1-yl}-5-cyano-2-[(1S)-2-ethoxy-1-methyl-2-oxoethoxy]nicotinate]
0.021 | CCOC(=O)c1cc(C#N)c(N2CCC(C(=O)NS(=O)(=O)CC3CCCCC3)CC2)nc1CN1CCCC1=O [Example 65, Ethyl 5-cyano-6-(4-{[(cyclohexylmethyl)sulfonyl]carbamoyl}piperidin-1-yl)-2-[(2-oxopyrrolidin-1-yl)methyl]nicotinate]
0.082 | CCOC(=O)c1cc(C#N)c(N2CCC(C(=O)NS(=O)(=O)Cc3ccc(C(C)C)cc3)CC2)nc1CN1CCCCC1=O [Example 69, Ethyl 5-cyano-6-(4-{[(4-isopropylbenzyl)sulfonyl]carbamoyl}piperidin-1-yl)-2-[(2-oxopiperidin-1-yl)methyl]nicotinate]
0.014 | CC(C)OC(=O)c1cc(C#N)c(N2CCC(C(=O)NS(=O)(=O)N(C)c3ccc(F)cc3)CC2)nc1CN1CCCC1=O [Example 79, Isopropyl 5-cyano-6-[4-({[(4-fluorophenyl)(methyl)amino]sulfonyl}carbamoyl)piperidin-1-yl]-2-[(2-oxopyrrolidin-1′-yl)methyl]nicotinate]
0.103 | CCOC(=O)c1ccc(N2CCC(C(=O)NS(=O)(=O)Cc3ccccc3)CC2)nc1CN1CCCC1=O [Example 86, Ethyl 6-{4-[(benzylsulfonyl)carbamoyl]piperidin-1-yl}-2-[(2-oxopyrrolidin-1-yl)methyl]nicotinate]
0.077 | CCOC(=O)CSCc1nc(N2CCC(C(=O)NS(=O)(=O)Cc3ccccc3)CC2)c(C#N)cc1C(=O)OCC [Example 122, Ethyl 6-{4-[(benzylsulfonyl)carbamoyl]piperidin-1-yl}-5-cyano-2-{[(2-ethoxy-2-oxoethyl)thio]methyl}nicotinate]
0.062 | CCOC(=O)c1cc(Cl)c(N2CCC(C(=O)NS(=O)(=O)N(C)c3ccccc3)CC2)nc1CN1CCCC1=O [Example 93, Ethyl 5-chloro-6-[4-({[methyl(phenyl)amino]sulfonyl}carbamoyl)piperidin-1-yl]-2-[(2-oxopyrrolidin-1-yl)methyl]nicotinate]
0.065 | CCOC(=O)c1cc(C#N)c(N2CCC(C(=O)NS(=O)(=O)Cc3ccccc3)CC2)nc1OCC(=O)N(C)C [Example 125, Ethyl 6-{4-[(benzylsulfonyl)carbamoyl]piperidin-1-yl}-5-cyano-2-[2-(dimethylamino)-2-oxoethoxy]nicotinate]
0.102 | CC(C)OC(=O)c1cc(C#N)c(N2CCC(C(=O)NS(=O)(=O)Cc3ccccc3)CC2)nc1CN1CCCCC1=O [Example 70, Isopropyl 6-{4-[(benzylsulfonyl)carbamoyl]piperidin-1-yl}-5-cyano-2-[(2-oxopiperidin-1-yl)methyl]nicotinate]
0.013 | CCOC(=O)c1cc(C#N)c(N2CCC(C(=O)NS(=O)(=O)Cc3ccccc3)CC2)nc1SCC(=O)N1CCC1 [Example 124, Ethyl 2-[(2-azetidin-1-yl-2-oxoethyl)thio]-6-{4-[(benzylsulfonyl)carbamoyl]piperidin-1-yl}-5-cyanonicotinate]
1.14 | CCOC(=O)c1cc(C#N)c(N2CCC(C(=O)N(C)S(=O)(=O)Cc3ccccc3)CC2)nc1CN1CCCCC1=O [Example 128, Ethyl 6-{4-[(benzylsulfonyl)(methyl)carbamoyl]piperidin-1-yl}-5-cyano-2-[(2-oxopiperidin-1-yl)methyl]nicotinate]
0.077 | CCOC(=O)c1cc(Cl)c(N2CCC(C(=O)NS(=O)(=O)N(C)c3ccc(F)cc3)CC2)nc1CN1CCCC1=O [Example 92, Ethyl 5-chloro-6-[4-({[(4-fluorophenyl)(methyl)amino]sulfonyl}carbamoyl)piperidin-1-yl]-2-[(2-oxopyrrolidin-1-yl)methyl]nicotinate]
0.053 | CCOC(=O)CSc1nc(N2CCC(C(=O)NS(=O)(=O)CC3CCCC3)CC2)c(C#N)cc1C(=O)OCC [Example 110, Ethyl 5-cyano-6-(4-{[(cyclopentylmethyl)sulfonyl]carbamoyl}piperidin-1-yl)-2-[(2-ethoxy-2-oxoethyl)thio]nicotinate]
0.024 | CCOC(=O)c1cc(C#N)c(N2CCC(C(=O)NS(=O)(=O)Cc3ccc(OC)cc3)CC2)nc1CN1CCCCC1=O [Example 68, Ethyl 5-cyano-6-(4-{[(4-methoxybenzyl)sulfonyl]carbamoyl}piperidin-1-yl)-2-[(2-oxopiperidin-1-yl)methyl]nicotinate]
0.057 | CCOC(=O)c1cc(C#N)c(N2CCC(C(=O)NS(=O)(=O)Cc3ccccc3)CC2)nc1CSCC(=O)N(C)C [Example 123, Ethyl 6-{4-[(benzylsulfonyl)carbamoyl]piperidin-1-yl}-5-cyano-2-({[2-(dimethylamino)-2-oxoethyl]thio}methyl)nicotinate]
0.037 | CCOC(=O)c1cc(Cl)c(N2CCC(C(=O)NS(=O)(=O)Cc3ccc(C)cc3)CC2)nc1CN1CCCC1=O [Example 87, Ethyl 5-chloro-6-(4-{[(4-methylbenzyl)sulfonyl]carbamoyl}piperidin-1-yl)-2-[(2-oxopyrrolidin-1-yl)methyl]nicotinate]
